This passage reports AC50 results from ChEMBL document CHEMBL5291721, “A preclinical secondary pharmacology resource illuminates target-adverse drug reaction associations of marketed drugs” (Nat Commun, 2023).

Test [1] deals with Glutamate receptor ionotropic, NMDA 1 (Rattus norvegicus, UniProt P35439).
For another test, the target named is Adenosine receptor A2a (Homo sapiens, UniProt P29274).
The target of test [2] is Gamma-aminobutyric acid receptor subunit alpha-1 (Rattus norvegicus, UniProt P62813).
Sequence of Gamma-aminobutyric acid receptor subunit alpha-1 (P62813 whole entry): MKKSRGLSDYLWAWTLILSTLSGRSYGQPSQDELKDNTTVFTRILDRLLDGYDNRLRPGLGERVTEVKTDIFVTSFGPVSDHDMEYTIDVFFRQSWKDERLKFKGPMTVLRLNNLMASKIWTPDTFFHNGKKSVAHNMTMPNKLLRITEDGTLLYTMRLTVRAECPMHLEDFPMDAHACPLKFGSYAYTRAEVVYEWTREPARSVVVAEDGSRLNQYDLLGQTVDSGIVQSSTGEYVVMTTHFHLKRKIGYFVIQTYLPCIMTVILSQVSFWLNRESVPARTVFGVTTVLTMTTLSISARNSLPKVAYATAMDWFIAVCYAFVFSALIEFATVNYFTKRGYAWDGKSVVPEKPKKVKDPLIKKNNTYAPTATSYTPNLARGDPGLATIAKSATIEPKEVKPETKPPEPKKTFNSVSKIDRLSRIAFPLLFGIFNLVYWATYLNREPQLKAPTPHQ
For test [3], the target named is Growth hormone secretagogue receptor type 1 (Homo sapiens, UniProt Q92847).
Sequence of Growth hormone secretagogue receptor type 1 (Q92847 whole entry): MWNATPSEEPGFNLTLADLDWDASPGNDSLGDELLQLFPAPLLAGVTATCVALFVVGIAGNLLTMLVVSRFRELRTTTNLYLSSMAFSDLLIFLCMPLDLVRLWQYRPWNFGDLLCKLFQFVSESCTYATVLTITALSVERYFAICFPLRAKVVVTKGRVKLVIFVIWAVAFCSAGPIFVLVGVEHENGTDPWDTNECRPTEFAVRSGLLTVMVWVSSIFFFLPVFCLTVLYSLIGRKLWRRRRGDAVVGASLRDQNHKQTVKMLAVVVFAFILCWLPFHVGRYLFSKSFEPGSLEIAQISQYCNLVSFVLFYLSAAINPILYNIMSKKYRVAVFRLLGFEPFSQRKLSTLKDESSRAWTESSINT
The target of the next test is T1, Glucocorticoid receptor (Homo sapiens, UniProt P04150).
T1 sequence (P04150 whole entry): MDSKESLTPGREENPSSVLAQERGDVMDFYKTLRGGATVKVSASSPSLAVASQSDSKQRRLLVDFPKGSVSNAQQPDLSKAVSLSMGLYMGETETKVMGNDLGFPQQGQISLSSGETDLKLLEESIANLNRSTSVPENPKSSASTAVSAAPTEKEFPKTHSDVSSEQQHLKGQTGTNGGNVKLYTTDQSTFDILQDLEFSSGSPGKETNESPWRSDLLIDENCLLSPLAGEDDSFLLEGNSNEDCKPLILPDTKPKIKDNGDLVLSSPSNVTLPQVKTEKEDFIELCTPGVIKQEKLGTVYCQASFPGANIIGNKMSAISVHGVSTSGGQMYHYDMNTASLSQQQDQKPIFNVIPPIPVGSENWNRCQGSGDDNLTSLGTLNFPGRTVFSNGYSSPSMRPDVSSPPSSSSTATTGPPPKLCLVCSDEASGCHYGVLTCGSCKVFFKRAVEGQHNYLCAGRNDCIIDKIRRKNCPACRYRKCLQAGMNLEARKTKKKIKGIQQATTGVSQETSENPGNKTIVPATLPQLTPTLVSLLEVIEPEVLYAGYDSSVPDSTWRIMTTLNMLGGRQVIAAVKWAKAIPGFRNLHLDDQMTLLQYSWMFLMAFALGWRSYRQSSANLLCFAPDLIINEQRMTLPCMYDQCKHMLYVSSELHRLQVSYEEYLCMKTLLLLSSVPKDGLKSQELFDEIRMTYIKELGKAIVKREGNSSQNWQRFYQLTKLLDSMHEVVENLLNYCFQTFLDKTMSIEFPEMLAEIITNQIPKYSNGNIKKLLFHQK

In test [4] the target is T2, Muscarinic acetylcholine receptor M2 (Homo sapiens, UniProt P08172).
T2 sequence (P08172 whole entry): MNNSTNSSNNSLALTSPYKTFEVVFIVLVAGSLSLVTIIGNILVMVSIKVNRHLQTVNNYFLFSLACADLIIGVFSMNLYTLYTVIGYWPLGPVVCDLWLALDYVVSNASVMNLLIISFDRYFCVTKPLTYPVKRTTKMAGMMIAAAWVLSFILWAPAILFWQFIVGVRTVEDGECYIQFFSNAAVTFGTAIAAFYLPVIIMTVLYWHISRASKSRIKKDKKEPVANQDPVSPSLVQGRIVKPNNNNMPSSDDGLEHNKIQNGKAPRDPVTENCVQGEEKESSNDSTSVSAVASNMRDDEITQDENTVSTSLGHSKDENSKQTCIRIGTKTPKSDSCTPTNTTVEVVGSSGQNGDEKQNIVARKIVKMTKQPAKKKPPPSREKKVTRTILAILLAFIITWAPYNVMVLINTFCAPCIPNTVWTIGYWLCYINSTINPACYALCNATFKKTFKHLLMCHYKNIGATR
Format: functional, cell-based.

In test [5] the target is T3, Prostaglandin G/H synthase 1 (Rattus norvegicus, UniProt Q63921).
T3 sequence (Q63921 whole entry): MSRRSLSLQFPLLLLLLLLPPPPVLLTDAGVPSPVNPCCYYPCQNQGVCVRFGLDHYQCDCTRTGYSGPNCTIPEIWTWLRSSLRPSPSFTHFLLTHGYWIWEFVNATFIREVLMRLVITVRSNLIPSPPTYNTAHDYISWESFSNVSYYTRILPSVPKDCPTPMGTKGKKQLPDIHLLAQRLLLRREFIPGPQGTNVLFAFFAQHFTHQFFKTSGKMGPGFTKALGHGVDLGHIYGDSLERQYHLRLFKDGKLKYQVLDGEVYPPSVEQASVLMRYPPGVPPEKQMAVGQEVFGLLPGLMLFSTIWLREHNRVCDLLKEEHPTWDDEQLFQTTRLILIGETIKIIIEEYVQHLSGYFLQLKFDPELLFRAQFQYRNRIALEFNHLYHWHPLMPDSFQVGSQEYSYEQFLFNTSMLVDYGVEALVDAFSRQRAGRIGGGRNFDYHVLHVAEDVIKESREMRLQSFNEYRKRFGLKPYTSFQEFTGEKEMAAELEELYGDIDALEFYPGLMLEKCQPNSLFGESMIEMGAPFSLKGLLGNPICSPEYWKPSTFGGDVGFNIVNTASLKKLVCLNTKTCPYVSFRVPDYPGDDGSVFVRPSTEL
Format: functional.

Test [6] concerns the target T4, Alpha-1A adrenergic receptor (Homo sapiens, UniProt P35348).
T4 sequence (P35348 whole entry): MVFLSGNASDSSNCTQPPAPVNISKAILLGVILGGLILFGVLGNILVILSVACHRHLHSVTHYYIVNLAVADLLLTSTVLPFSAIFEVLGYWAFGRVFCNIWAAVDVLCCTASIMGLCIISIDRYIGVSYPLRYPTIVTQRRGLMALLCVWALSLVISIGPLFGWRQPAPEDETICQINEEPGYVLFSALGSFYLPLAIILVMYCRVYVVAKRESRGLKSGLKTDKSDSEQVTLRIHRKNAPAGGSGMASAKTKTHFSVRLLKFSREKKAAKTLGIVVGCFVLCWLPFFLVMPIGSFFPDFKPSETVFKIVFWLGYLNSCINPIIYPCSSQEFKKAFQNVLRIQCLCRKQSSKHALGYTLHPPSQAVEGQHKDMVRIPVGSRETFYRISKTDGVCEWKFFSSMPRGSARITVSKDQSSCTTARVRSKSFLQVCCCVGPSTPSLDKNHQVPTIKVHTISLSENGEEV
Format: functional, cell-based.

The next test deals with Cannabinoid receptor 1 (Homo sapiens, UniProt P21554). Format: functional, cell-based.
Sequence of Cannabinoid receptor 1 (P21554 whole entry): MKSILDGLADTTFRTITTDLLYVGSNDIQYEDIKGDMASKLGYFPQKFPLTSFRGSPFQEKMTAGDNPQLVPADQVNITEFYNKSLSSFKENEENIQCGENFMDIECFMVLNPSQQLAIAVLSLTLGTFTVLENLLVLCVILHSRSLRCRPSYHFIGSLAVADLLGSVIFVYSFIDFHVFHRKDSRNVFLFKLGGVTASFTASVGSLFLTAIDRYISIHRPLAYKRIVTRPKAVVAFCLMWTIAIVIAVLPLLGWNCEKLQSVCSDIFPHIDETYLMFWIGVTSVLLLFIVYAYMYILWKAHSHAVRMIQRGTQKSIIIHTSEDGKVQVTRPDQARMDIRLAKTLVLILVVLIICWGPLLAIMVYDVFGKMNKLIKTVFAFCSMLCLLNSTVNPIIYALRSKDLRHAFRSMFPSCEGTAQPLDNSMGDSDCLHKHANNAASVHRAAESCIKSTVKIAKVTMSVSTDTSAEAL

Where only a bound is given, the exact number is not on record here.
Also: assay procedure not described here.

Sequence of Adenosine receptor A2a (P29274 whole entry): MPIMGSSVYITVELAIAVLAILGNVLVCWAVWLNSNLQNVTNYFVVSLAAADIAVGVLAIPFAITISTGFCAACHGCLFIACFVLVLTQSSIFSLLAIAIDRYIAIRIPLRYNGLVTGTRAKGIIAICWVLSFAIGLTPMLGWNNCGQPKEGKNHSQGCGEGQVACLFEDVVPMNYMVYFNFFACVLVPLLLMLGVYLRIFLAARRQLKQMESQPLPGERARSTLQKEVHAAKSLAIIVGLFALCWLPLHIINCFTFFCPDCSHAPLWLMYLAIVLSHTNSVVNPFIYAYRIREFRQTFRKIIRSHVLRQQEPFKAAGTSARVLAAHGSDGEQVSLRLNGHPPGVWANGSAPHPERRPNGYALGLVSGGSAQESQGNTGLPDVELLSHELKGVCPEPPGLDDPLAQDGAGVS

As usually defined, the AC50 is the midpoint of the concentration-response curve, whichever way the signal moves. A lower AC50 goes with activity at low concentration. Take `NCCCC(O)(P(=O)(O)O)P(=O)(O)O` [ALENDRONIC ACID]: the AC50 in test [1] is more than 10 µM; at Adenosine receptor A2a, more than 30 µM; in test [2], more than 10 µM; in test [3], more than 30 µM; at Glucocorticoid receptor it was more than 30 µM.
Take `NS(=O)(=O)c1cc2c(cc1C(F)(F)F)NC(Cc1ccccc1)NS2(=O)=O` (stereo not drawn) [BENDROFLUMETHIAZIDE]: the half-maximal activity concentration (AC50) (in test [1]; in test [4]; at Adenosine receptor A2a; in [2]; in test [3]; in test [5]) was more than 10 µM throughout.
Regarding `CCCC(C)(COC(N)=O)COC(=O)NC(C)C` (stereo not drawn) [CARISOPRODOL], the AC50 in test [6] is more than 30 µM; in test [1], more than 10 µM; in test [4], more than 10 µM; at Adenosine receptor A2a, more than 30 µM; in test [2], more than 10 µM; on Cannabinoid receptor 1 it was more than 30 µM. Further, the AC50 in test [3] and in test [5] was more than 30 µM each time.
Turning to `C[C@@H]1C[C@H]2[C@@H]3C[C@H](F)C4=CC(=O)C=C[C@]4(C)[C@@]3(F)[C@@H](O)C[C@]2(C)[C@H]1C(=O)CO` [DIFLUCORTOLONE], the AC50 in test [5] is more than 30 µM.
As for `CC1(C)C(/C=C/C=C/C=C/C=C2\N(CCCCS(=O)(=O)O)c3ccc4ccccc4c3C2(C)C)=[N+](CCCCS(=O)(=O)[O-])c2ccc3ccccc3c21` [INDOCYANINE GREEN ACID FORM], the AC50 in [6] was more than 30 µM; in [1], more than 30 µM; at Adenosine receptor A2a, more than 30 µM; in test [3], 14 µM; on Glucocorticoid receptor, more than 30 µM; in test [5], 21 µM.
With `CC#CCn1c(N2CCC[C@@H](N)C2)nc2c1c(=O)n(Cc1nc(C)c3ccccc3n1)c(=O)n2C` [LINAGLIPTIN], the AC50 in test [1] is more than 10 µM; on Adenosine receptor A2a it was more than 30 µM; in test [2], more than 10 µM; in test [3], 5.2 µM; at Glucocorticoid receptor, more than 30 µM; in test [5], more than 30 µM.
As to `CC(CCc1ccccc1)NC(C)C(O)c1ccc(O)cc1` (stereo not drawn) [NYLIDRIN], the AC50 in test [4] is more than 10 µM; at Adenosine receptor A2a it was more than 30 µM; in test [2], more than 10 µM; at Cannabinoid receptor 1, more than 30 µM; in test [3] it was more than 30 µM; at Glucocorticoid receptor, more than 30 µM. In test [5], this compound registered an AC50 of more than 30 µM.
Consider `O=C1Nc2ccc(Cl)cc2C(c2ccccc2)=NC1O` (stereo not drawn) [OXAZEPAM], for which the AC50 in test [6] is more than 30 µM; in [1], more than 10 µM; in [4] it was more than 10 µM; at Adenosine receptor A2a, more than 30 µM; in [2] it was more than 10 µM; at Cannabinoid receptor 1, more than 30 µM. In addition, the AC50 in [3] and in test [5] was more than 30 µM each time.
In the case of `CC1(C)C(C=C(Cl)Cl)C1C(=O)OCc1cccc(Oc2ccccc2)c1` (stereo not drawn) [PERMETHRIN], the AC50 in test [1] is more than 10 µM; in [4] it was more than 10 µM; on Adenosine receptor A2a it was more than 10 µM; in [2], more than 10 µM; in [3] it was more than 10 µM; at Glucocorticoid receptor, more than 30 µM. Besides, the AC50 in [5] was more than 10 µM.
In the case of `NC(=O)CCC/N=C(\c1ccc(Cl)cc1)c1cc(F)ccc1O` [PROGABIDE], the concentration at half-maximal activity (AC50) in [6] was more than 30 µM; in test [1], more than 10 µM; in test [4], more than 10 µM; at Adenosine receptor A2a, more than 10 µM; in test [2], more than 10 µM; in test [3], more than 10 µM. Also, the AC50 (at Glucocorticoid receptor; in test [5]) was more than 10 µM in each case.
Consider `COc1cc2nccc(Oc3ccc(NC(=O)Nc4cc(C)on4)c(Cl)c3)c2cc1OC` [TIVOZANIB], for which the concentration at half-maximal activity (AC50) in test [6] was more than 30 µM; in test [4], more than 30 µM; on Adenosine receptor A2a it was more than 3 µM; in test [5] it was more than 3 µM.
For the compound `COc1ccc(C(CN(C)C)C2(O)CCCCC2)cc1` (stereo not drawn) [VENLAFAXINE], the AC50 was more than 30 µM in test [6]; more than 10 µM in [1]; more than 10 µM in test [4]; more than 30 µM at Adenosine receptor A2a; more than 10 µM in [2]; more than 30 µM in test [3]. Besides, the AC50 in test [5] is more than 30 µM.
